# Test: loss of righting test (muscle relaxant activity)
# Type: in vivo
compound,measurement,setting,value
Nc1cccc(-c2ccccc2)c1CC(=O)O [Example 6-phenyl],Percent loss of Righting reflex,Dose 50 mg/kg,0%
same,Percent loss of Righting reflex,Dose 100 mg/kg,100%

# — patent EP0089426A1, “2-Amino-6-biphenylacetic acids” (A.H. ROBINS COMPANY, INCORPORATED, priority 1982, dated 1983)
